Tests used:
Keap1 = system: T1, Keap1; experiment: intact-protein MS and MS/MS adduct mapping, UV-Vis reaction kinetics with purified Keap1-BTB (no reaction with C151S); the IC50 is from ITDRF-CETSA of Keap1-mCherry in cell lysate; assay type: binding
T1 construct: cell lysate CETSA

Cys151 = Cys151 (UniProt position 151, SMGEKCVLHVM); conditions: not stated (reduced, unmodified C151 implied); cited from earlier work

| EC50 (Keap1) [µM] | Compound | pKa (Cys151) |
| --- | --- | --- |
| 12 | Nc1ccccc1C(=O)/C=C/C(=O)O (mixture of isomers) [Kyn-CKA, (E)- and (Z)-(4-(2-aminophenyl)-4-oxobut-2-enoic acids] |  |
|  | Kelch-like ECH-associated protein 1 (Keap1), BTB domain (not stated for the recombinant protein (probably Homo sapiens, inferred)) | 6.9 |

Source: article PMC12828764, “The electrophilic metabolite of kynurenine, kynurenine-CKA, requires C151 in Keap1 to derepress Nrf2” (Redox Biology, 2025)
